From patent publication US20240390335A1, “PHARMACEUTICAL COMPOSITION CONTAINING BETA-LACTAM COMPOUND AND USE THEREOF” (priority 2021, published 2024)
Converted amounts (≈) assume the structure as drawn.

Assays:
Enterobacter cloacae [1] = assay: MIC assay of individual compounds (microdilution, CLSI/NCCLS); assay type: cell-based; settings: individual compound
Method: (§1) Mueller-Hinton broth (MH broth) medium, Trypticase Soy Broth (TSB Broth) medium, purchased from BD Difco, Cockeysville, MD, USA; • 96-well plate: Corning Costar, Cambridge, MA, USA; • Test method: the antibacterial activities were tested by the microdilution method according to the CLSI/NCCLS standard.
(§2) (1) Preparation of the test samples: 4 mg of each sample was taken, and was prepared into a test solution at 1,024 μg/mL with MH broth, and the test solution was diluted two-fold in a 96-well plate to prepare solutions of a series of gradient concentrations, the volume in each well being 90 μL.
(§3) (2) Preparation of a bacteria solution: The test strains were amplified by Trypticase Soy Broth (TSB Broth) according to the CLSI/NCCLS standard.
(§4) (3) Addition of the samples: a bacteria solution with a concentration of 6×10^5 cfu/mL was prepared, and 10 μL of the bacteria solution was pipetted into each well of the 96-well plate. Three parallel experiments were set up for each concentration and the results were averaged. To the negative control group, 10 μL of the bacterial solution and 90 μL MH broth were added.
(§5) (4) Incubation: the 96-well plate was placed in a 37° C. constant-temperature incubator for 18 hours, and the growth of the strains was observed. The drug concentration in the well with no microbial growth was recorded as the MIC.

Escherichia coli [2] = assay: as above; assay type: cell-based; settings: individual compound
Method: as §1, §2, §3, §4, §5

Klebsiella pneumoniae [3] = assay: as above; assay type: cell-based; settings: individual compound
Method: as §1, §2, §3, §4, §5

Enterobacter cloacae [4] = assay: Combined in vitro use, checkerboard dilution method; assay type: cell-based; settings: compound of formula (I-1) combined with avibactam; Enterobacter cloacae ATCC 2468
Method: (§6) Mueller-Hinton broth (MH broth) medium, Trypticase Soy Broth (TSB Broth) medium, purchased from BD Difco, Cockeysville, MD, USA; • 96-well plate: Corning Costar, Cambridge, MA, USA; • Test method: the checkerboard dilution method was used for determination.
(§7) (1) Preparation of the test samples: 4 mg of each sample was taken and was prepared into a test solution at 2,048 μg/mL with MH broth, and the test solution was diluted two-fold in a 96-well plate to prepare solutions of a series of gradient concentrations.
as §3
(§8) (3) Addition of the samples: 10 μL of the bacteria solution with a concentration of 6×10^5 CFU/mL was pipetted into each well of the 96-well plate. Each well contained the antibacterial drugs (the compound of formula (I-1) and the compound of formula (I-2)) diluted two-fold with broth and the aforementioned lactamase inhibitor or efflux pump inhibitor. […] The samples were mixed thoroughly. Three parallel experiments were set up for each concentration and the results were averaged. To the negative control group, 10 μL of the bacterial solution and 90 μL MH broth were added.
(§9) (4) Incubation: the 96-well plate was placed in a 37° C. constant-temperature incubator for 18 hours, and the growth of the strains was observed.
(§10) (5) Calculation: The in vitro effect of each drug-inhibitor combination was analyzed by calculating the FICI value: FICI=(MIC of drug A in the combination/MIC of drug A alone)+ (MIC of drug B in the combination/MIC of drug B alone).
(§11) In order to ensure the reliability of the data, three repeated tests were conducted on different dates and the results were averaged.

Escherichia coli [5] = assay: as above; assay type: cell-based; settings: compound of formula (I-1) combined with avibactam
Method: as §6, §7, §3, §8, §9, §10, §11

Klebsiella pneumoniae [6] = assay: as above; assay type: cell-based
Method: as §6, §7, §3, §8, §9, §10, §11

[7] = system: drug-resistant Enterobacteriaceae; assay: MIC assay of individual compounds, summary over Enterobacteriaceae strains; assay type: cell-based; settings: against the aforementioned Enterobacteriaceae
Method: as §1, §2, §3, §4, §5

[8] = system: Klebsiella pneumoniae ATCC BAA2146 (NDM-1); settings: avibactam itself; stated as well known to those skilled in the art; cited from earlier work
[9] = Escherichia coli CCPM(A)-P-071301

## NC(=O)[C@@H]1CC[C@@H]2CN1C(=O)N2OS(=O)(=O)O [Avibactam, avibactam]
Enterobacter cloacae [1]; Enterobacter cloacae ATCC 2468
  MIC: 32 µg/mL (≈ 121 µM)
Enterobacter cloacae [1]; Enterobacter cloacae CCPM(A)-P-111719
  MIC: 32 µg/mL (≈ 121 µM)
Escherichia coli [2]; Escherichia coli ATCC 2469
  MIC: 16 µg/mL (≈ 60.3 µM)
Escherichia coli [2]; [9]
  MIC: 16 µg/mL (≈ 60.3 µM)
Klebsiella pneumoniae [3]; Klebsiella pneumoniae ATCC 2146
  MIC: 8 µg/mL (≈ 30.2 µM)
Klebsiella pneumoniae [3]; Klebsiella pneumoniae ATCC 700603
  MIC: 16 µg/mL (≈ 60.3 µM)
Klebsiella pneumoniae [3]; Klebsiella pneumoniae CCPM(A)-0814R18
  MIC: 16 µg/mL (≈ 60.3 µM)
Klebsiella pneumoniae [3]; Klebsiella pneumoniae CCPM(A)-0814R33
  MIC: 16 µg/mL (≈ 60.3 µM)
Klebsiella pneumoniae [3]; Klebsiella pneumoniae CCPM(A)-0817R61
  MIC: 32 µg/mL (≈ 121 µM)
Klebsiella pneumoniae [3]; Klebsiella pneumoniae CCPM(A)-081301
  MIC: 32 µg/mL (≈ 121 µM)
Klebsiella pneumoniae [3]; Klebsiella pneumoniae CCPM(A)-081705
  MIC: 16 µg/mL (≈ 60.3 µM)
Klebsiella pneumoniae [3]; Klebsiella pneumoniae CCPM(A)-081715
  MIC: 32 µg/mL (≈ 121 µM)
Klebsiella pneumoniae [3]; Klebsiella pneumoniae CCPM(A)-081716
  MIC: 16 µg/mL (≈ 60.3 µM)
Klebsiella pneumoniae [3]; Klebsiella pneumoniae CCPM(A)-081729
  MIC: 32 µg/mL (≈ 121 µM)
Enterobacter cloacae [4]
  MIC in combination: 4 µg/mL
Escherichia coli [5]; Escherichia coli ATCC 2469
  MIC in combination: 1 µg/mL
Escherichia coli [5]; [9]
  MIC in combination: 1 µg/mL
Klebsiella pneumoniae [6]; compound of formula (I-1) combined with avibactam, Klebsiella pneumoniae ATCC 2146
  MIC in combination: 2 µg/mL
Klebsiella pneumoniae [6]; compound of formula (I-1) combined with avibactam, Klebsiella pneumoniae ATCC 700603
  MIC in combination: 0.5 µg/mL
Klebsiella pneumoniae [6]; compound of formula (I-1) combined with avibactam, Klebsiella pneumoniae CCPM(A)-0814R18
  MIC in combination: 0.5 µg/mL
Klebsiella pneumoniae [6]; compound of formula (I-1) combined with avibactam, Klebsiella pneumoniae CCPM(A)-0814R33
  MIC in combination: 2 µg/mL
Klebsiella pneumoniae [6]; compound of formula (I-1) combined with avibactam, Klebsiella pneumoniae CCPM(A)-0817R61
  MIC in combination: 0.5 µg/mL
Klebsiella pneumoniae [6]; compound of formula (I-1) combined with avibactam, Klebsiella pneumoniae CCPM(A)-081705
  MIC in combination: 8 µg/mL
Klebsiella pneumoniae [6]; compound of formula (I-1) combined with avibactam, Klebsiella pneumoniae CCPM(A)-081715
  MIC in combination: 0.5 µg/mL
Klebsiella pneumoniae [6]; compound of formula (I-1) combined with avibactam, Klebsiella pneumoniae CCPM(A)-081716
  MIC in combination: 8 µg/mL
Klebsiella pneumoniae [6]; compound of formula (I-1) combined with avibactam, Klebsiella pneumoniae CCPM(A)-081729
  MIC in combination: 8 µg/mL
Klebsiella pneumoniae [6]; compound of formula (I-2) combined with avibactam, Klebsiella pneumoniae ATCC 2146
  MIC in combination: 0.5 µg/mL
Klebsiella pneumoniae [6]; compound of formula (I-2) combined with avibactam, Klebsiella pneumoniae ATCC 700603
  MIC in combination: 0.5 µg/mL
Klebsiella pneumoniae [6]; compound of formula (I-2) combined with avibactam, Klebsiella pneumoniae CCPM(A)-081715
  MIC in combination: 4 µg/mL
Klebsiella pneumoniae [6]; compound of formula (I-2) combined with avibactam, Klebsiella pneumoniae CCPM(A)-081729
  MIC in combination: 4 µg/mL
[7]
  activity of the inhibitor itself: relatively weak activities
[8]
  in vivo antibacterial effect on the test strain: no in vivo antibacterial effect
